SMILES strings stand for the structures.

The target in this assay is human LPA1 receptor (Homo sapiens (Human), UniProt Q92633). Kind of assay: Beta-arrestin recruitment assay to determine IC50 values for human LPAR1. Format: cell-based. The note with it: antagonist mode, Tango EDG2-bla U2OS cells, LPA 18:1 500 nM final. The essentials: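 Tango EDG2-bla U2OS cells: LPA-driven beta-arrestin/TEV protease recruitment releases Gal4-VP16, inducing beta-lactamase reporter read with live-cell substrate. Cells seeded 20 h at 37 °C beforehand. IC50 is antagonist concentration inhibiting 50% of maximal response.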
Chain of human LPA1 receptor (Q92633 whole entry, the tested form may be a part): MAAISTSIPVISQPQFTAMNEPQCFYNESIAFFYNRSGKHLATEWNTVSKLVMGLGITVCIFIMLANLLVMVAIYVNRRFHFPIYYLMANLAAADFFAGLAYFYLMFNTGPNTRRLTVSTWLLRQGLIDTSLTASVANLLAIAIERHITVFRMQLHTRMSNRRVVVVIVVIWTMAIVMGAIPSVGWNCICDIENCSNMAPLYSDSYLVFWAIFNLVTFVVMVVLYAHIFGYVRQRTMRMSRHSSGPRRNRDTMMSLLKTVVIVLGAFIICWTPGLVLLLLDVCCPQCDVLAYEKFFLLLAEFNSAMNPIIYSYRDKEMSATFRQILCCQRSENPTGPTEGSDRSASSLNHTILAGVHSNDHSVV
`Cc1ccc(NC(=O)C2(c3ccccc3C(C)C)CN(C(=O)C[C@@](C)(O)C(=O)O)C2)c(OC(F)F)n1` [Ex 12-116, (R)-4-(3-((2-(difluoromethoxy)-6-methylpyridin-3-yl)carbamoyl)-3-(2-isopropylphenyl)azetidin-1-yl)-2-hydroxy-2-methyl-4-oxobutanoic acid]: the concentration for half-maximal inhibition (IC50) was found to be 63 nM. Next, `COC(=O)c1n[nH]cc1CN1CC(C(=O)Nc2ccc(C)nc2OC(F)F)(c2ccccc2C(C)C)C1` [Ex 11-37, methyl 4-((3-((2-(difluoromethoxy)-6-methylpyridin-3-yl)carbamoyl)-3-(2-isopropylphenyl)azetidin-1-yl)methyl)-1H-pyrazole-3-carboxylate]: 6 nM. The figure for `Cc1cnc(NC(=O)C2(c3ccccc3C(C)C)CN(C(=O)CC3(C(=O)O)CCC3)C2)c(OC(F)F)c1` [Ex 79-7, 1-(2-(3-((3-(difluoromethoxy)-5-methylpyridin-2-yl)carbamoyl)-3-(2-isopropylphenyl)azetidin-1-yl)-2-oxoethyl)cyclobutane-1-carboxylic acid] is 61 nM; for `Cc1ccc(NC(=O)C2(c3ccccc3C(C)C)CCN(C(=O)CN(CCO)C(=O)OC(C)(C)C)CC2)c(OC(F)F)n1` [Ex 12-49, tert-butyl (2-(4-((2-(difluoromethoxy)-6-methylpyridin-3-yl)carbamoyl)-4-(2-isopropylphenyl)piperidin-1-yl)-2-oxoethyl)(2-hydroxyethyl)carbamate] it is 30 nM; for `COC(=O)c1ccc(CN2CC(C(=O)Nc3ccc(C)nc3OC(F)F)(c3ccccc3C(C)C)C2)o1` [Ex 11-56, methyl 5-((3-((2-(difluoromethoxy)-6-methylpyridin-3-yl)carbamoyl)-3-(2-isopropylphenyl)azetidin-1-yl)methyl)furan-2-carboxylate] it is 64 nM. Next, `COC(=O)Cn1cccc1CN1CC(C(=O)Nc2ccc(C)nc2OC(F)F)(c2ccccc2C(C)C)C1` [Ex 11-41, methyl 2-(2-((3-((2-(difluoromethoxy)-6-methylpyridin-3-yl)carbamoyl)-3-(2-isopropylphenyl)azetidin-1-yl)methyl)-1H-pyrrol-1-yl)acetate]: 67 nM; `COC(=O)c1[nH]ncc1S(=O)(=O)N1CC(C(=O)Nc2ccc(C)nc2OC(F)F)(c2ccccc2C(C)C)C1` [Ex 13-22, methyl 4-((3-((2-(difluoromethoxy)-6-methylpyridin-3-yl)carbamoyl)-3-(2-isopropylphenyl)azetidin-1-yl)sulfonyl)-1H-pyrazole-5-carboxylate]: 270 nM. In turn, `Cc1ccc(NC(=O)C2(c3ccccc3C(C)C)CN(c3nc(C(=O)O)co3)C2)c(OC(F)F)n1` [Ex 18-28, 2-(3-((2-(difluoromethoxy)-6-methylpyridin-3-yl)carbamoyl)-3-(2-isopropylphenyl)azetidin-1-yl)oxazole-4-carboxylic acid] displayed an IC50 of 6 nM.

With `Cc1ccc(NC(=O)C2(c3ccccc3C(C)C)CN(Cc3ccc(C(=O)O)nc3)C2)c(OC(F)F)n1` [Ex 11-53, 5-((3-((2-(difluoromethoxy)-6-methylpyridin-3-yl)carbamoyl)-3-(2-isopropylphenyl)azetidin-1-yl)methyl)picolinic acid], 115 nM corresponded to half-maximal inhibition (IC50). The figure for `CC(C)c1cccnc1C1(C(=O)Nc2ncc(Cl)cc2OC(F)F)CN(S(N)(=O)=O)C1` [Example 81-7, N-(5-chloro-3-(difluoromethoxy)pyridin-2-yl)-3-(3-isopropylpyridin-2-yl)-1-sulfamoylazetidine-3-carboxamide] is 5 nM; for `Cc1ccc(NC(=O)C2(c3ccccc3C(C)C)CCN(C(=O)OC(C)(C)C)CC2)c(OC(F)F)n1` [Ex 4-1, tert-butyl 4-((2-(difluoromethoxy)-6-methylpyridin-3-yl)carbamoyl)-4-(2-isopropylphenyl)piperidine-1-carboxylate] it is 19 nM; for `Cc1ccc(NC(=O)C2(c3ccccc3C3=CCCC3)CN(C(=O)CC(C)(C)C(=O)O)C2)c(OC(F)F)n1` [Ex 31-4, 4-(3-(2-(cyclopent-1-en-1-yl)phenyl)-3-((2-(difluoromethoxy)-6-methylpyridin-3-yl)carbamoyl)azetidin-1-yl)-2,2-dimethyl-4-oxobutanoic acid] it is 89 nM.

Compound `Cc1ccc(NC(=O)C2(c3ccccc3C(C)C)CN(S(=O)(=O)CC(=O)O)C2)c(OC(F)F)n1` [Ex 13-1, 2-((3-((2-(difluoromethoxy)-6-methylpyridin-3-yl)carbamoyl)-3-(2-isopropylphenyl)azetidin-1-yl)sulfonyl)acetic acid] registered a 50% inhibitory concentration (IC50) of 7 nM.

In turn, `Cc1ccc(NC(=O)C2(c3ccccc3C(C)C)CN(c3ccncc3F)C2)c(OC(F)F)n1` [Ex 18-19, N-(2-(difluoromethoxy)-6-methylpyridin-3-yl)-1-(3-fluoropyridin-4-yl)-3-(2-isopropylphenyl)azetidine-3-carboxamide] showed a half-inhibitory concentration (IC50) of 2 nM.

Consider `Cc1ccc(NC(=O)C2(c3ccccc3C(C)C)CN(CCC3(C(=O)O)CC3)C2)c(OC(F)F)n1` [Ex 11-72, 1-(2-(3-((2-(difluoromethoxy)-6-methylpyridin-3-yl)carbamoyl)-3-(2-isopropylphenyl)azetidin-1-yl)ethyl)cyclopropane-1-carboxylic acid], for which the IC50 amounted to 52 nM.

`Cc1ccc(NC(=O)C2(c3ccccc3C(C)C)CN(CC3(C(=O)O)CC3)C2)c(OC(F)F)n1` [Ex 11-27, 1-((3-((2-(difluoromethoxy)-6-methylpyridin-3-yl)carbamoyl)-3-(2-isopropylphenyl)azetidin-1-yl)methyl)cyclopropane-1-carboxylic acid] returned an IC50 of 38 nM. On to `COC(=O)C1(c2ncc(N3CC(C(=O)Nc4ccc(C)nc4OC(F)F)(c4ccccc4C(C)C)C3)cn2)CC1` [Ex 18-16, methyl 1-(5-(3-((2-(difluoromethoxy)-6-methylpyridin-3-yl)carbamoyl)-3-(2-isopropylphenyl)azetidin-1-yl)pyrimidin-2-yl)cyclopropane-1-carboxylate], for which half-maximal inhibition (IC50) was put at 2 nM. The compound `Cc1ccc(NC(=O)C2(c3ccccc3C3CCC3)CN(C(=O)CC(C)(C)C(=O)O)C2)c(OC(F)F)n1` [Ex 31-2, 4-(3-(2-cyclobutylphenyl)-3-((2-(difluoromethoxy)-6-methylpyridin-3-yl)carbamoyl)azetidin-1-yl)-2,2-dimethyl-4-oxobutanoic acid] displayed an IC50 of 6 nM. `COC(=O)CC(C)(C)NC(=O)N1CC(C(=O)Nc2ccc(C)nc2OC(F)F)(c2ccccc2C(C)C)C1` [Ex 17-1, Methyl 3-(3-((2-(difluoromethoxy)-6-methylpyridin-3-yl)carbamoyl)-3-(2-isopropylphenyl)azetidine-1-carboxamido)-3-methylbutanoate] registered an IC50 of 18 nM. As to `CC(C)c1ccccc1C1(C(=O)Nc2ncc(Cl)cc2OC(F)F)CN(C(=O)CC(C)(C)C(=O)O)C1` [Ex 79-3, 4-(3-((5-chloro-3-(difluoromethoxy)pyridin-2-yl)carbamoyl)-3-(2-isopropylphenyl)azetidin-1-yl)-2,2-dimethyl-4-oxobutanoic acid], the half-maximal inhibitory concentration (IC50) is 17 nM. The figure for `Cc1ccc(NC(=O)C2(c3ccccc3C(C)C)CN(C(=O)C[C@@H](C)C(=O)O)C2)c(OC(F)F)n1` [Ex 12-80, (R)-4-(3-((2-(difluoromethoxy)-6-methylpyridin-3-yl)carbamoyl)-3-(2-isopropylphenyl)azetidin-1-yl)-2-methyl-4-oxobutanoic acid] is 18 nM; for `Cc1ccc(NC(=O)C2(c3ccccc3C(C)C)CN(C(=O)CNCCC(=O)O)C2)c(OC(F)F)n1` [Ex 44, 3-((2-(3-((2-(difluoromethoxy)-6-methylpyridin-3-yl)carbamoyl)-3-(2-isopropylphenyl)azetidin-1-yl)-2-oxoethyl)amino)propanoic acid] it is 155 nM; for `COC(=O)/C=C/S(=O)(=O)N1CC(C(=O)Nc2ccc(C)nc2OC(F)F)(c2ccccc2C(C)C)C1` [Ex 13-20, methyl (E)-3-((3-((2-(difluoromethoxy)-6-methylpyridin-3-yl)carbamoyl)-3-(2-isopropylphenyl)azetidin-1-yl)sulfonyl)acrylate] it is 18 nM. The figure for `Cc1cc(Cl)nc(N2CC(C(=O)Nc3ccc(C)nc3OC(F)F)(c3ccccc3C(C)C)C2)n1` [Ex 18-26, 1-(4-chloro-6-methylpyrimidin-2-yl)-N-(2-(difluoromethoxy)-6-methylpyridin-3-yl)-3-(2-isopropylphenyl)azetidine-3-carboxamide] is 48 nM; for `Cc1ccc(NC(=O)C2(c3ccccc3C(C)C)CN(CCNC(=O)CO)C2)c(OC(F)F)n1` [Ex 11-87, N-(2-(difluoromethoxy)-6-methylpyridin-3-yl)-1-(2-(2-hydroxyacetamido)ethyl)-3-(2-isopropylphenyl)azetidine-3-carboxamide] it is 26 nM; for `Cc1ccc(NC(=O)C2(c3ccccc3C(C)C)CN(c3ccc(C(=O)O)cn3)C2)c(OC(F)F)n1` [Ex 18-2, 6-(3-((2-(difluoromethoxy)-6-methylpyridin-3-yl)carbamoyl)-3-(2-isopropylphenyl)azetidin-1-yl)nicotinic acid] it is 6 nM. `COC(=O)C1(OC(=O)N2CC(C(=O)Nc3ccc(C)nc3OC(F)F)(c3ccccc3C(C)C)C2)CC1` [Ex 14-7, 1-(methoxycarbonyl)cyclopropyl 3-((2-(difluoromethoxy)-6-methylpyridin-3-yl)carbamoyl)-3-(2-isopropylphenyl)azetidine-1-carboxylate] showed an IC50 of 79 nM. Next, `Cc1ccc(NC(=O)C2(c3ccccc3C(C)C)CN(c3ccc(C#N)cn3)C2)c(OC(F)F)n1` [Ex 18-22, 1-(5-cyanopyridin-2-yl)-N-(2-(difluoromethoxy)-6-methylpyridin-3-yl)-3-(2-isopropylphenyl)azetidine-3-carboxamide]: 1 nM. Next, `Cc1ccc(NC(=O)C2(c3ccccc3C(C)C)CCNC2)c(OC(F)F)n1` (centres unmarked) [Ex 10, N-(2-(difluoromethoxy)-6-methylpyridin-3-yl)-3-(2-isopropylphenyl)pyrrolidine-3-carboxamide]: 7 nM.

The values above are taken from US12344597B2, “Alkoxy-substituted pyridinyl derivatives as LPA1 receptor antagonists and their use in the treatment of fibrosis” (IDORSIA PHARMACEUTICALS LTD, priority 2018, dated 2025).
